Measured values reported in ChEMBL document CHEMBL1128950, “Synthesis and structure-activity relationships of 9-substituted acridines as endothelin-A receptor antagonists” (Bioorg Med Chem Lett, 1996).

Assays:
Type in all cases: cell-based
[1] = molecular target: T1, Endothelin receptor type B (Homo sapiens, UniProt P24530); test: Inhibition of binding of [125I]ET1 to cloned human Endothelin B receptor expressed in CHO-K1 cells up to 200 uM; non significant
T1 sequence (P24530 whole entry): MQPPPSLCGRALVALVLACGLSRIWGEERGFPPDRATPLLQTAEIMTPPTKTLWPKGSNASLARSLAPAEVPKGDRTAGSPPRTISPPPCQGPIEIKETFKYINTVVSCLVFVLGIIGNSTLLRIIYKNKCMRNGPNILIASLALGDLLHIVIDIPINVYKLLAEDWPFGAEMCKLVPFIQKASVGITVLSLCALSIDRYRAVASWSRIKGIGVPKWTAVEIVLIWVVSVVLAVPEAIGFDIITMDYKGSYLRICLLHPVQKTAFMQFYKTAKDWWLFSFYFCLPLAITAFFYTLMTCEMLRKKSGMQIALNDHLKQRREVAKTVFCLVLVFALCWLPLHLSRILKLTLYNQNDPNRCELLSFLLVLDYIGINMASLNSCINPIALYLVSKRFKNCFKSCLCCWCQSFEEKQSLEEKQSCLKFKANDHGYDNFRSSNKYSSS

Endothelin-1 receptor = molecular target: T2, Endothelin-1 receptor (Homo sapiens, UniProt P25101); test: Inhibition of binding of [125I]ET1 to cloned human Endothelin A receptor expressed in LtK- cells
T2 sequence (P25101 whole entry): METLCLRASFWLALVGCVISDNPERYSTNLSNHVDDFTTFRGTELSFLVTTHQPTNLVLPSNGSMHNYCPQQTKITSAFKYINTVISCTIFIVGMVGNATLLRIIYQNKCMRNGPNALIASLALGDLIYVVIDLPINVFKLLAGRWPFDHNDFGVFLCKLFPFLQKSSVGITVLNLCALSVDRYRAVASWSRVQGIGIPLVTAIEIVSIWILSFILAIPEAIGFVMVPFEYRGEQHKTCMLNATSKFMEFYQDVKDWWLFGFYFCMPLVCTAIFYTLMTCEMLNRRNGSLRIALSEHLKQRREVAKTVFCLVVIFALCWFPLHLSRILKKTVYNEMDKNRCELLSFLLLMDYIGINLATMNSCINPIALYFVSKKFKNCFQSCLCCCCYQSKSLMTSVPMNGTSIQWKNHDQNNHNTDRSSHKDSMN

[2] = molecular target: T1, Endothelin receptor type B; test: Compound was tested for inhibition of binding of [125I]ET1 to cloned human Endothelin B receptor expressed in CHO-K1 cells

Compound | IC50 [1] | IC50 (Endothelin-1 receptor) | IC50 [2]
NC(=O)C(c1ccc2c(c1)OCO2)c1c2ccccc2nc2ccccc12 (centres undefined) | Not Active | – | –
CC(C)(C)OC(=O)C(c1ccc2c(c1)OCO2)c1c2ccccc2nc2ccccc12 (centres undefined) | Not Active | – | –
COc1ccc(COC(=O)C(c2ccc3c(c2)OCO3)c2c3ccccc3nc3ccccc23)cc1 (centres undefined) | Not Active | – | –
COC(=O)C(c1ccc2c(c1)OCO2)c1c2c(nc3ccccc13)CCCC2 (centres undefined) | Not Active | – | –
O=CC(c1ccc2c(c1)OCO2)c1c2ccccc2nc2ccccc12 (centres undefined) | Not Active | – | –
COC(=O)C(c1ccc2c(c1)OCO2)C(c1ccccc1)c1ccccc1 (centres undefined) | Not Active | > 25 µM | –
COC(=O)C(c1ccc2c(c1)OCO2)c1c2ccccc2nc2c(OC)c(OC)ccc12 (centres undefined) | Not Active | > 25 µM | –
COC(=O)C(c1ccc(OC)cc1)c1c2ccccc2nc2ccccc12 (centres undefined) | Not Active | > 25 µM | –
CC(C)(C)c1ccc(COC(=O)C(c2ccc3c(c2)OCO3)c2c3ccccc3nc3ccccc23)cc1 (centres undefined) | Not Active | > 25 µM | –
COC(=O)C(c1ccc2c(c1)OCO2)c1c2ccccc2nc2ccccc12 (centres undefined) | – | – | > 250 µM
COC(=O)C(Oc1c2ccccc2nc2ccccc12)c1ccc2c(c1)OCO2 (centres undefined) | Not Active | – | –
c1ccc2c(Cc3ccc4c(c3)OCO4)c3ccccc3nc2c1 | Not Active | > 25 µM | –

Second part, the molecule after the results:

IC50 [1] | IC50 (Endothelin-1 receptor) | IC50 [2] | Compound
Not Active | > 25 µM | – | COC(=O)C(Cc1ccc2c(c1)OCO2)c1c2ccccc2nc2ccccc12 (centres undefined)
Not Active | > 25 µM | – | COC(=O)C(c1ccc(Cl)cc1)c1c2ccccc2nc2ccccc12 (centres undefined)
Not Active | 0.9 µM | – | OCC(c1ccc2c(c1)OCO2)c1c2ccccc2nc2ccccc12 (centres undefined)
Not Active | > 25 µM | – | O=C(OCc1ccc(Cl)cc1)C(c1ccc2c(c1)OCO2)c1c2ccccc2nc2ccccc12 (centres undefined)
Not Active | > 25 µM | – | COC(=O)C(c1ccc2c(c1)OCO2)c1c2ccccc2[n+]([O-])c2ccccc12 (centres undefined)
Not Active | > 25 µM | – | COC(=O)C(c1ccc(OC)c(OC)c1)c1c2ccccc2nc2ccccc12 (centres undefined)
Not Active | > 25 µM | – | COC(=O)C(c1ccc2c(c1)OCO2)C1c2ccccc2CCc2ccccc21 (centres undefined)
Not Active | 61 µM | – | COC(=O)C(c1ccc2c(c1)OCO2)c1cc(C)nc2ccccc12 (centres undefined)
Not Active | > 25 µM | – | COC(=O)C(c1ccc2c(c1)OC(C)(C)O2)c1c2ccccc2nc2ccccc12 (centres undefined)
Not Active | > 25 µM | – | COC(=O)C(c1ccc([N+](=O)[O-])cc1)c1c2ccccc2nc2ccccc12 (centres undefined)
Not Active | > 25 µM | – | COC(=O)C(c1ccc2c(c1)OCO2)c1cc(-c2ccccc2)nc2ccccc12 (centres undefined)
Not Active | 76 µM | – | COC(=O)C(Cc1c2ccccc2cc2ccccc12)c1ccc2c(c1)OCO2 (centres undefined)
Not Active | > 25 µM | – | COC(=O)C(c1ccc(Cl)c(Cl)c1)c1c2ccccc2nc2ccccc12 (centres undefined)
Not Active | 37 µM | – | Cc1cc(C(C(N)=O)c2ccc3c(c2)OCO3)c2ccccc2n1 (centres undefined)
Not Active | 33 µM | – | O=C(OCc1ccc2c(c1)OCO2)C(c1ccc2c(c1)OCO2)c1c2ccccc2nc2ccccc12 (centres undefined)
Not Active | 57 µM | – | O=C(OCc1ccccc1)C(c1ccc2c(c1)OCO2)c1c2ccccc2nc2ccccc12 (centres undefined)
